One assay concerns the target PTGER2 (EP2) (Homo sapiens (Human), UniProt P43116). In words: hEP2 b-arrestin assay (PathHunter HEK 293 PTGER2 b-arrestin cells). In kind it is cell-based. To be noted: antagonistic activity, beta-arrestin assay; read-out: hEP2 b-arr IC50. On the procedure: Plate is pre-incubated 15 minutes at 37° C. Then five microliters of PGE2 (final conc. 5 μM) are transferred into the assay plate. Plate is incubated 120 minutes at 37° C.
(each concentration is measured in duplicate)

In the next assay the target is EP2 (Homo sapiens (Human), UniProt P43116). In words: hEP2 cAMP assay (SF295 glioblastoma cells, HTRF cAMP). In kind it is cell-based. To be noted: antagonistic activity. In outline:
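PGE2-driven cAMP accumulation was measured by HTRF in SF295 cells, which express endogenous EP2 only. Cells in assay buffer with 2 mM IBMX were pre-incubated 45 min at RT, then incubated 30 min at RT. Detection used competition between cellular cAMP and d2-cAMP for a cryptate anti-cAMP antibody.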
In general terms: cAMP levels reflect the balance of adenylyl cyclase and phosphodiesterase activity.

A further assay concerns the target EP4 (Homo sapiens (Human), UniProt P35408). In words: hEP4 cAMP assay (BT549 breast cancer cells, HTRF cAMP). It counts as cell-based. The following applies: antagonistic activity, PGE2 6 nM. In outline:
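BT549 breast cancer cells (endogenous EP4) in HBSS/20 mM HEPES/0.2% BSA/2 mM IBMX preincubated 45 min at RT with compound, then stimulated 30 min at RT with 6 nM PGE2 (final). cAMP read by competitive HTRF immunoassay, signal inversely proportional to cAMP.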

Another assay concerns the target PTGER4 (EP4) (Homo sapiens (Human), UniProt P35408).

From patent US11839613B2, “Pyrimidine derivatives as PGE2 receptor modulators” (IDORSIA PHARMACEUTICALS LTD, priority 2017, dated 2023) come the findings set out here.

EP4, sequence (P35408 whole entry): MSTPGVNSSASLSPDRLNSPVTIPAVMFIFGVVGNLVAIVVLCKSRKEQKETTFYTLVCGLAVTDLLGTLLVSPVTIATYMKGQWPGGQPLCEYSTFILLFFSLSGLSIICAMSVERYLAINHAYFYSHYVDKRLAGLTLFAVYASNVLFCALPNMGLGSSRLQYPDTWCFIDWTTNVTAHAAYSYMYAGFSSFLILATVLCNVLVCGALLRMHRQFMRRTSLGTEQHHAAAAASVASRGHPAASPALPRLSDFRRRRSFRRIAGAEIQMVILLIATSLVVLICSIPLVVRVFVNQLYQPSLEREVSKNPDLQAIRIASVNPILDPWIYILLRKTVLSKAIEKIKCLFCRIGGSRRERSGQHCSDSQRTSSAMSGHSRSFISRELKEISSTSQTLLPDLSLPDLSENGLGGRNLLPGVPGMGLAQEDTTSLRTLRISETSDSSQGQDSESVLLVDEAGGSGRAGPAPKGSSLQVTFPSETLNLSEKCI
PTGER4 (EP4), sequence (P35408 whole entry): as above
PTGER2 (EP2), sequence (P43116 whole entry): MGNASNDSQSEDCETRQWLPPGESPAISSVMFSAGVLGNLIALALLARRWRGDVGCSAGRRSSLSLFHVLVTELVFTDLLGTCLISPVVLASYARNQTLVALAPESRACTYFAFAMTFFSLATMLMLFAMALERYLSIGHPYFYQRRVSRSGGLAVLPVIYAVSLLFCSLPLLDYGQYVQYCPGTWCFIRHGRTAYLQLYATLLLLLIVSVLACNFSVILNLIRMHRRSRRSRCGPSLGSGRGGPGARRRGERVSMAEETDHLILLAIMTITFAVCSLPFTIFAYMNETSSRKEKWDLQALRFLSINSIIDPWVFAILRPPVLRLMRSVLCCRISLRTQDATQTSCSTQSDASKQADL
EP2, sequence (P43116 whole entry): as above

In general, IC50 refers to the concentration that inhibits the measured activity by half. Turning to “2-Ethoxy-4-{6-[2-(7-ethynyl-2,3-dihydro-benzo[1,4]dioxin-6-yl)-ethylamino]-pyrimidin-4-yl}-benzoic acid [Example 439]”, the IC50 turned out to be 0.017 µM at PTGER2 (EP2), 0.033 µM against EP2, 0.139 µM on EP4 (BT549 cells) and 0.197 µM at PTGER4 (EP4).

Regarding `CCOc1cc(-c2cc(NCCc3c(F)cc4ncccc4c3F)ncn2)sc1C(=O)O` [Ex 43], the IC50 on PTGER2 (EP2) was 0.054 µM; against EP2, 0.043 µM; against EP4 it was 0.021 µM; on PTGER4 (EP4), 0.044 µM.

As to `CCOc1cc(-c2cc(NCCc3ccc4sccc4c3)nc(C)n2)sc1C(=O)O` [Ex 96], the IC50 was 0.148 µM at PTGER2 (EP2), 0.057 µM against EP2, 0.061 µM on EP4 and 0.092 µM at PTGER4 (EP4).

Take `CCOc1cc(-c2cc(NCCc3ccc4c(c3)COC4)ncn2)sc1C(=O)O` [Ex 164]: the IC50 on PTGER2 (EP2) stood at 0.269 µM; against EP2, 0.149 µM; against EP4, 0.163 µM; on PTGER4 (EP4) it was 0.093 µM.

As to `CCOc1cc(-c2cc(NCCc3ccc4scnc4c3)ncn2)sc1C(=O)O` [Ex 88], the IC50 came to 0.107 µM at PTGER2 (EP2), 0.064 µM on EP2, 0.053 µM against EP4 and 0.059 µM on PTGER4 (EP4).

For `CCOc1cc(-c2cc(NCCc3ccc4sncc4c3)ncn2)sc1C(=O)O` [Ex 135], the IC50 on PTGER2 (EP2) was determined as 0.198 µM; on EP2 it was 0.171 µM; against EP4, 0.115 µM; on PTGER4 (EP4), 0.172 µM.

Take `CCOc1cc2ccccc2cc1CCNc1cc(-c2cc(OCC)c(C(=O)O)s2)ncn1` [Ex 23]: the IC50 came out at 0.015 µM at PTGER2 (EP2), 0.019 µM on EP2, 0.014 µM against EP4 and 0.003 µM against PTGER4 (EP4).

As for `O=C(O)c1ccc(-c2cc(NCCc3ccc4c(c3)CCS4)ncn2)cc1OC1CCC1` [Ex 170], the IC50 amounted to 0.241 µM on PTGER2 (EP2), 0.094 µM on EP2, 0.168 µM on EP4 and 0.124 µM against PTGER4 (EP4).

For the compound `CCOc1cc(-c2cc(NCCc3c(OC)cc4ccccc4c3C)ncn2)sc1C(=O)O` [Ex 1], the IC50 on PTGER2 (EP2) came to 0.006 µM; against EP2, 0.008 µM; against EP4, 0.001 µM; against PTGER4 (EP4) it was 0.002 µM.

For `CCOc1cc(-c2cc(NCCc3c(C#N)cc4ccccc4c3C)ncn2)sc1C(=O)O` [Ex 2], the IC50 was 0.113 µM on PTGER2 (EP2), 0.079 µM against EP2, 0.001 µM at EP4 and 0.003 µM at PTGER4 (EP4).

Take `COc1cc2ccccc2c(F)c1CCNc1cc(-c2ccc(CC(=O)O)c(SC)c2)ncn1` [Ex 115]: the IC50 at PTGER2 (EP2) worked out at 0.243 µM; against EP2, 0.682 µM; against EP4, 0.085 µM; against PTGER4 (EP4) it was 0.053 µM.

Consider `CCOc1cc(-c2cc(NCCc3cc4ccsc4cc3OC)ncn2)ccc1C(=O)O` [Ex 109], for which the IC50 amounted to 0.034 µM on PTGER2 (EP2), 0.012 µM at EP2, 0.078 µM against EP4 and 0.101 µM against PTGER4 (EP4).

On to `CCOc1cc2ccccc2cc1CCNc1cc(-c2ccc(OCC(=O)O)c(OCC)c2)ncn1` [Ex 160], for which the IC50 worked out at 0.035 µM at PTGER2 (EP2), 0.093 µM against EP2, 0.158 µM against EP4 and 0.024 µM against PTGER4 (EP4).

As to `CSc1cc(-c2cc(NCCc3cc4c(cc3C#N)OCCO4)ncn2)ccc1C(=O)O` [Ex 97], the IC50 was found to be 0.192 µM on PTGER2 (EP2), 0.078 µM on EP2, 0.063 µM against EP4 and 0.147 µM at PTGER4 (EP4).

As to `CCOc1cc(-c2cc(NCCc3ccc4c(c3)CCO4)ncn2)sc1C(=O)O` [Ex 114], the IC50 at PTGER2 (EP2) came out at 0.222 µM; against EP2 it was 0.222 µM; at EP4, 0.085 µM; against PTGER4 (EP4), 0.64 µM.

In the case of `CSc1cc(-c2cc(NCCc3ccc4scc(C#N)c4c3)ncn2)ccc1C(=O)O` [Ex 212], the IC50 on PTGER2 (EP2) came to 0.255 µM; against EP2, 0.05 µM; on EP4, 0.253 µM; at PTGER4 (EP4), 0.34 µM.

In the case of `N#Cc1csc2ccc(CCNc3cc(-c4ccc(C(=O)O)c(OC5CCC5)c4)ncn3)cc12` [Ex 273], the IC50 on PTGER2 (EP2) came out at 0.289 µM; at EP2, 0.14 µM; on EP4, 0.455 µM; at PTGER4 (EP4), 0.221 µM.

For `COc1c(CCNc2cc(-c3cc(F)c(C(=O)O)c(OC4CCC4)c3)ncn2)c(F)c(F)c2cc(C)oc12` [Ex 262], the IC50 at PTGER2 (EP2) turned out to be 1.3 µM; against EP2 it was 0.855 µM; against EP4, 0.424 µM; on PTGER4 (EP4), 0.186 µM.

In the case of `CCOc1cc(-c2cc(NCCc3cc4ccsc4cc3C#N)ncn2)ccc1C(=O)O` [Ex 128], the IC50 at PTGER2 (EP2) came out at 0.151 µM; on EP2, 0.076 µM; against EP4 it was 0.103 µM; against PTGER4 (EP4), 0.192 µM.

As for `CCOc1cc(-c2cc(NCCc3ccc4scc(C#N)c4c3)ncn2)sc1C(=O)O` [Ex 27], the IC50 at PTGER2 (EP2) came out at 0.075 µM; against EP2, 0.019 µM; on EP4, 0.017 µM; on PTGER4 (EP4), 0.016 µM.

As for `CCOc1cc(-c2cc(NCCc3ccc4cccc(F)c4c3)ncn2)ccc1C(=O)O` [Ex 269], the IC50 on PTGER2 (EP2) amounted to 1.64 µM; against EP2, 6.51 µM; against EP4, 0.434 µM; against PTGER4 (EP4) it was 0.588 µM.

As to `COc1cc2ccccc2c(F)c1CCNc1cc(-c2ccc(C(=O)O)c(OC3CCC3)c2)ncn1` [Ex 25], the IC50 was determined as 0.096 µM at PTGER2 (EP2), 0.098 µM on EP2, 0.022 µM on EP4 and 0.016 µM against PTGER4 (EP4).

Regarding `CCOc1cc(-c2cc(NCCc3cc4ccccc4c(F)c3OC)ncn2)ccc1C(=O)O` [Ex 174], the IC50 is 0.409 µM at PTGER2 (EP2), 0.269 µM against EP2, 0.09 µM against EP4 and 0.088 µM against PTGER4 (EP4).

For the compound `CCOc1cc2ccccc2cc1CCNc1cc(-c2ccc(C(=O)O)c(OCC)c2)ncn1` [Ex 188], the IC50 on PTGER2 (EP2) came to 0.045 µM; on EP2, 0.142 µM; on EP4, 0.206 µM; at PTGER4 (EP4), 0.105 µM.

Consider `CCOc1cc(-c2cc(NCCc3cc4ccccc4cc3OC(F)F)ncn2)sc1C(=O)O` [Ex 45], for which the IC50 was determined as 0.127 µM on PTGER2 (EP2), 0.185 µM on EP2, 0.021 µM against EP4 and 0.005 µM at PTGER4 (EP4).

For the compound `COc1cc2sccc2cc1CCNc1cc(-c2ccc(CC(=O)O)c(SC)c2)ncn1` [Ex 224], the IC50 is 0.084 µM on PTGER2 (EP2), 0.061 µM at EP2, 0.173 µM at EP4 and 0.26 µM on PTGER4 (EP4).

For the compound `COc1cc2ccccc2c(C)c1CCNc1cc(-c2ccc(C(=O)O)c(OC3CCC3)c2)ncn1` [Ex 79], the IC50 on PTGER2 (EP2) turned out to be 0.043 µM; at EP2, 0.083 µM; against EP4, 0.044 µM; at PTGER4 (EP4), 0.056 µM.

As for `CSc1cc(-c2cc(NCCc3ccc4scnc4c3)ncn2)ccc1C(=O)O` [Ex 237], the IC50 on PTGER2 (EP2) was determined as 0.388 µM; against EP2 it was 0.16 µM; against EP4 it was 0.335 µM; at PTGER4 (EP4), 0.908 µM.

With `CCOc1cc(-c2cc(NCCc3cc4cccnc4c(C)c3Cl)ncn2)sc1C(=O)O` [Ex 87], the IC50 at PTGER2 (EP2) was found to be 0.173 µM; against EP2 it was 0.134 µM; on EP4 it was 0.051 µM; on PTGER4 (EP4) it was 0.085 µM.

`CCOc1cc(-c2cc(NCCc3cc4c(cc3C#N)OCCO4)ncn2)sc1C(=O)O` [Ex 6]: the IC50 on PTGER2 (EP2) worked out at 0.011 µM; against EP2, 0.037 µM; against EP4 it was 0.004 µM; at PTGER4 (EP4) it was 0.006 µM.
